Assays:
Type in all cases: binding
[1] = molecular target: T1, Siglec-9 V-set domain (Siglec-9d1) (Homo sapiens, UniProt Q9Y336, C36S); test: Isothermal titration calorimetry
[2] = molecular target: T1, Siglec-9 V-set domain (Siglec-9d1); test: 1H-15N HSQC NMR titration
[3] = test system: mVENUS; test: STD-NMR control experiment with mVENUS

T1 sequence (Q9Y336 18-144 C36S): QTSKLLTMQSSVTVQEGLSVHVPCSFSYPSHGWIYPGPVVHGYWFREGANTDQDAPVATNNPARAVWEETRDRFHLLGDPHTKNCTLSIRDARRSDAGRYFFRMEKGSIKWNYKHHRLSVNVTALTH

9N-[5-(2-methylthiazol-4-yl)thiophene sulfonamide]-Neu5Acα(2–6)Galβ(1–4)GlcNAc [^MTTSNeu5Ac]
ΔH ([1]; ITC, Siglec-9d1): -10.2 kcal/mol | fold higher affinity for Siglec-9 than the glycan with unsubstituted Neu5Ac ([1]; comparison with the unsubstituted glycan): > 20 fold | fold higher affinity toward Siglec-9 than BTCNeu5Ac ([1]; from ITC KD values): approximately 2 fold

CC(=O)N[C@H]1[C@H]([C@H](O)[C@H](O)CO)O[C@@](O[C@H]2[C@@H](O)[C@@H](CO)O[C@@H](O[C@@H]([C@H](O[C@@H]3O[C@@H](C)[C@@H](O)[C@@H](O)[C@@H]3O)[C@H](C=O)NC(C)=O)[C@H](O)CO)[C@@H]2O)(C(=O)O)C[C@@H]1O [sLeX, Neu5Ac(α2-3)Gal(β1-4)[Fuc(1-3)]GlcNAc]
Kd [2]: 499 ± 74 µM | STD NMR signals on binding to mVENUS [3]: did not produce any STD NMR signals

From publication PMC10877568 (ACS Chemical Biology, 2024)
